Data reported in US4351948A, “Imidazole hydrazone derivatives” (priority 1980, dated 1982).
Where a name gives a salt, the structure may show the parent alone. Read-outs that look alike come from different tables or passages of the source.

Legend:
Escherichia coli = assay: Anti-bacterial activity, zone diameter; assay type: cell-based; conditions: for zone of inhibition at 50 µg/disc: read-out: Zone diameter given by 50 μg of drug
Source text: (§1) The anti-bacterial activity of the compound HC274 according to the present invention was also compared with the activity of known anti-bacterial agents with the following results: […]

Staphylococcus aureus = assay: Anti-bacterial activity, zone diameter; assay type: cell-based; conditions: for zone of inhibition at 50 µg/disc: read-out: Zone diameter given by 50 μg of drug
Source text: as §1

Streptococcus pyrogenes = assay: Anti-bacterial activity, zone diameter; assay type: cell-based; conditions: for zone of inhibition at 50 µg/disc: read-out: Zone diameter given by 50 μg of drug
Source text: as §1

Proteus vulgaris = assay: Anti-bacterial activity, zone diameter; assay type: cell-based; conditions: for zone of inhibition at 50 µg/disc: read-out: Zone diameter given by 50 μg of drug
Source text: as §1

Nocardia brasiliensis = assay: Anti-bacterial activity, zone diameter; assay type: cell-based; conditions: for zone of inhibition at 50 µg/disc: read-out: Zone diameter given by 50 μg of drug
Source text: as §1

Klebsiella pneumoniac = assay: Anti-bacterial activity, zone diameter; assay type: cell-based; conditions: for zone of inhibition at 50 µg/disc: read-out: Zone diameter given by 50 μg of drug
Source text: as §1

Nocardia asteroides = assay: Anti-bacterial activity, zone diameter; assay type: cell-based; conditions: for zone of inhibition at 50 µg/disc: read-out: Zone diameter given by 50 μg of drug
Source text: as §1

pseudomonas aeruginosa = assay: Anti-bacterial activity, zone diameter; assay type: cell-based; conditions: for zone of inhibition at 50 µg/disc: read-out: Zone diameter given by 50 μg of drug
Source text: as §1

platelet aggregation = assay: Platelet aggregation after oral administration in the retired male breeder rat model; assay type: in vivo; conditions: read-out: ED50 (3 hr. post oral administration)
Source text: HC 501 has also been evaluated for platelet aggregation 3 hrs. after oral administration in the retired male breeder rat model (R. N. Saunders et al, Lab. Anim. Sci., 1977, 27, 757).

[1] = tested on: Trichophyton mentagrophytes; assay: Experimental Trichophyton mentagrophytes infection in guinea pigs; assay type: in vivo
Source text: Effect of oral or topical administration of HC274, HC344, Clotrimazole, and Ketoconazole on experimental Trichophyton mentagrophytes infection in guinea pigs.
*Based on degree of hair loss, erythema, desquamation, Max. = 100
Treatments administered in Carbopol® gel, once daily days 5-10.

C. albicans [2] = assay: Vaginal candida infection in rats, oral or topical treatment; assay type: in vivo
Source text: Effect of oral or topical administration of HC274 and ketoconazole on vaginal candida infection in rats. Clearance of C. albicans from rat vagina following oral or topical treatment (as percentage of control).
Topical treatment: 1% solution in polyethylene glycol administrated twice daily for 3 days.
Oral treatment: Once daily for 3 days.

candida albicans = assay: Oral treatment: recovery of viable candida albicans from the kidneys of infected mice; assay type: in vivo
Source text: Effect of oral treatment with HC274, HC316, HC390, HC415 and Ketoconazole on the recovery of viable candida albicans from the kidneys of infected mice.

[3] = tested on: platelet thromboxane generation; assay: Inhibition of platelet thromboxane generation (TxB2, collagen-stimulated human platelet rich plasma); assay type: cell-based; conditions: 10 min, collagen 8 μg/ml, human PRP, 10 min. incubation, 37° C., read-out: Activity IC50 (50% inhibition of TxB2 generation)
Method: The compounds used according to the invention as anti-thrombotics were tested by the following method for their ability to inhibit platelet thromboxane generation.
Human venous blood was collected from healthy male donors, who had denied any medication in the previous 14 days. Nine volumes of blood were mixed with one volume of 3.24% trisodium citrate. The citrated blood was centrifuged at 160 g for 10 mins. at 22° C. to obtain platelet rich plasma (PRP). The platelets were then counted on a Coulter counter, and the platelet count was adjusted to 200,000 per μl with plasma.
The PRP was then dispensed as aliquots into micro-Eppendorf tubes, maintained at 37° C. in a dry bath. The compounds dissolved either in saline, ethanol, or DMSO were added in duplicate to the PRP aliquots to produce final concentrations of 0.3, 3 and 30 μg/ml. When ethanol and DMSO were used as the vehicle, triplicate controls containing the same percentage of vehicle as the test compounds were made. The final concentration or organic solvent was never more than 0.1%, which in previous experiments had no effect on TxB2 generation.
Following a 10 min. incubation with test compounds or vehicle, collagen was added to produce a final concentration of 8 μg/ml. The tubes were then whirly-mixed for 15 seconds and replaced in the dry bath for a further 10 minutes, controls received saline instead of collagen. The reaction was then stopped by rapid centrifugation, 15,000 g for 3 mins. The plasma was removed and frozen at -29° C. until assayed.
Briefly, 100 μl aliquots, in tricine buffered saline+0.8% gelatin (pH 8.0) of the following were incubated together for 1 hour at 37° C.: thromboxane Tx B2 (plasma extract, spiked plasma extract or standards 20 to 20,000 pg/ml), ^3 H--TxB2 (approximately 15,000 dpm) and anti-TxB2 antiserum (0.5 μg/100 μl). The free and protein bound ^3 H--TxB2 were separated by ammonium sulphate precipitation followed by centrifugation. 300 μl of the supernatant was added to an aqueous scintillation fluid, and the radioactivity present was counted in a liquid scintillation counter. The binding of ^3 H--TxB2 in the absence of added TxB2 was approximately 55%. The least amount of TxB2 to be detected accurately in the plasma was 0.08 ng/ml. Cross reactivity with other prostaglandins is less than 0.005% except PGD2 which is 1%.
Thus plasma samples were assayed to give a rough approximation of TxB2 content. The plasma was then appropriately diluted and assayed in duplicate to give accurate values.
The amount of TxB2 generated by the collagen was calculated by subtracting mean values obtained for the saline stimulated platelets from the mean values obtained from the collagen stimulated platelets. Then the amount of TxB2 generated in the presence of each concentration of compound was expressed as a % control and dose response curves were then constructed to determine the concentration of compound which produced a 50% inhibition.

C. albicans [4] = assay: Recovery of viable candida cells from the kidneys of infected mice (p.o. and i.v. treatment); assay type: in vivo; conditions: 25 mg/kg 1 h and 24 h after infection
Method: Mice receive 25×10^4 cells of C. albicans i.v. Treatments (25 mg/kg) administered in PEG/Dextrose 1 h and 24 h after infection. Animals sacrified 48 h after infection and kidneys excised, weighed, homogenized and decimal dilutions spread on glucose-peptone agar.

candida = assay: Intravenous administration: recovery of viable candida cells from the kidneys of infected mice; assay type: in vivo; conditions: 25 mg/ml
[5] = topical, 1% w/w in Carbopol gel once daily days 5-10, day 10 after infection
[6] = topical, 1% w/w in Carbopol gel, day 5 after infection
[7] = topical, 1% solution in polyethylene glycol twice daily for 3 days
[8] = oral, 3 hr, retired male breeder rat

Molecule `CC1(C)S[C@@H]2[C@H](NC(=O)[C@H](N)c3ccccc3)C(=O)N2[C@H]1C(=O)O` [AMP, Ampicillin] has a zone of inhibition at 50 µg/disc (Escherichia coli; 50 μg) of 17 mm, a zone of inhibition at 50 µg/disc (Staphylococcus aureus; 50 μg) of 21 mm and a zone of inhibition at 50 µg/disc (Streptococcus pyrogenes; 50 μg, Streptococcus pyrogenes) of 25 mm. The zone of inhibition at 50 µg/disc (Proteus vulgaris; 50 μg) was 28 mm, the zone of inhibition at 50 µg/disc (Nocardia brasiliensis; 50 μg) was 38 mm and the zone of inhibition at 50 µg/disc (Klebsiella pneumoniac; 50 μg, Klebsiella pneumoniac) was 11 mm. The zone of inhibition at 50 µg/disc (Nocardia asteroides; 50 μg) was 38 mm and the zone of inhibition at 50 µg/disc (pseudomonas aeruginosa; 50 μg, pseudomonas aeruginosa) was 0 mm.

`CC(=O)Oc1ccccc1C(=O)O` [Aspirin, 2(Acetyloxy)benzoic acid] gave an ED50 (platelet aggregation; Rattus norvegicus, po, 3 h) of 7.7 mg/kg.

For `Clc1ccccc1C(c1ccccc1)(c1ccccc1)n1ccnc1` [Clotrimazole, 1-(2-Chlorophenyl)diphenylmethyl-1H-imidazole, reference compound], the LD50 at 168 h (in vivo; mouse, in vivo, iv) was 10 mg/kg, the LD12.5 (in vivo; p.o., male mice, 7 day) was 500 mg/kg and the “Disease rating (degree of hair loss, erythema, desquamation, Max. = 100)” value [1, 5] was 51.9. For the same molecule, the “Disease rating (degree of hair loss, erythema, desquamation, Max. = 100)” value [1, 6] was 100 and the “Clearance of C. albicans from rat vagina (as percentage of control)” value (“Clearance … (as percentage of control)” for short) (C. albicans [2]; [7]) was 100 percentage of control.

`OCCN(CCO)c1nc(N2CCCCC2)c2nc(N(CCO)CCO)nc(N3CCCCC3)c2n1` [Dipyridamide, 2,2',2",2"',[(4,8Di-1-piperidinyl-pyrimido]5,4d[pyrimidine2,6-diyl)dinitrlo] tetrakisethanol] showed an ED50 (platelet aggregation; [8]) of 6.8 mg/kg.

With `Clc1ccc(/C(Cn2ccnc2)=N/Nc2c(Cl)cccc2Cl)cc1` [HC344, (Z)-1-(4-chlorophenyl)-2-(1H-imidazol-1-yl) ethanone, 2,6-dichlorophenylhydrazone, hydrochloride] the LD50 at 168 h (in vivo; mouse, in vivo, ip, male mice, 7 day, read-out: LD50) was 780 mg/kg, the LD12.5 (in vivo; p.o., male mice, 7 day) was over 1500 mg/kg and the “Disease rating (degree of hair loss, erythema, desquamation, Max. = 100)” value [1, 5] was 24.6. The “Disease rating (degree of hair loss, erythema, desquamation, Max. = 100)” value [1, 6] was 100.

In the case of `Cl.Fc1c(F)c(F)c(N/N=C(\Cn2ccnc2)c2ccc(Cl)cc2)c(F)c1F` [HC415, (Z)-1-(4-chlorophenyl)-2-(1H-imidazol-1-yl)ethanone, 2,3,4,5,6-pentafluorophenylhydrazone hydrochloride], the “Recovery of C.albicans (as percentage of control)” value (candida albicans; 5 mg/kg) is reported as 14.0 percentage of control and the “Recovery of C.albicans (as percentage of control)” value (candida albicans; 20 mg/kg) is reported as 17.2 percentage of control.

Molecule `Clc1ccc(/C(Cn2ccnc2)=N/Nc2ccccc2Cl)cc1` [HC 501, (Z)-1-(4-chlorophenyl)-2-(1H-imidazol-1-yl)ethanone,2-chlorophenylhydrazone, hydrochloride] has an IC50 [3] of under 780 nM and an ED50 (platelet aggregation; [8]) of 0.003 mg/kg.

For `CC(=O)N1CCN(c2ccc(OCC3COC(Cn4ccnc4)(c4ccc(Cl)cc4Cl)O3)cc2)CC1` (stereo not drawn) [Ketoconazole, cis-1-Acetyl-4-[4-[[2-(2,4-dichlorophenyl)-2-(1H-imidazol-1-yl-methyl)-1,3-dioxolan-4-yl]methoxy]piperazine, reference compound], the “Disease rating (degree of hair loss, erythema, desquamation, Max. = 100)” value ([1]; 20 mg/kg p.o., day 5 after infection) was 100, the “Disease rating (degree of hair loss, erythema, desquamation, Max. = 100)” value ([1]; 20 mg/kg p.o., day 10 after infection) was 63.7 and the “Disease rating (degree of hair loss, erythema, desquamation, Max. = 100)” value [1, 5] was 56.4. The “Disease rating (degree of hair loss, erythema, desquamation, Max. = 100)” value [1, 6] was 100, the “Clearance … (as percentage of control)” value (C. albicans [2]; oral, 10 mg/kg once daily for 3 days) was 99.9 percentage of control and the “Clearance … (as percentage of control)” value (C. albicans [2]; [7]) was 99.9 percentage of control. For the same molecule, the “Recovery of C.albicans (as percentage of control)” value (candida albicans; 5 mg/kg) was 51.0 percentage of control and the “Recovery of C.albicans (as percentage of control)” value (candida albicans; 20 mg/kg) was 11.7 percentage of control.

For `Clc1ccc(COC(Cn2ccnc2)c2ccc(Cl)cc2Cl)c(Cl)c1` (stereo not drawn) [Miconazole, 1-[2-(2,4-Dichlorophenyl)-2-[(2,4-dichlorophenyl)methoxy]ethyl]-1H-imidazole], the “No. of CFU/g kidney at 48 h” value (C. albicans [4]; i.v.) was 9 × 10^2 CFU/g kidney, the “No. of CFU/g kidney at 48 h” value (C. albicans [4]; p.o.) was 1.4 × 10^3 CFU/g kidney and the LD50 at 168 h (in vivo; mouse, in vivo, iv, male mice, 7 day, read-out: LD50) was 80 mg/kg. It also gave an LD12.5 (in vivo; p.o., male mice, 7 day) of over 500 mg/kg.

Molecule `CCn1cc(C(=O)O)c(=O)c2ccc(C)nc21` [NA, Nalidixic Acid] has a zone of inhibition at 50 µg/disc (Escherichia coli) of 18 mm, a zone of inhibition at 50 µg/disc (Staphylococcus aureus) of 9 mm and a zone of inhibition at 50 µg/disc (Streptococcus pyrogenes; Streptococcus) of 0 mm. It also gave a zone of inhibition at 50 µg/disc (Proteus vulgaris) of 25 mm, a zone of inhibition at 50 µg/disc (Nocardia brasiliensis) of 7 mm and a zone of inhibition at 50 µg/disc (Klebsiella pneumoniac; Klebsiella) of 21 mm. It also gave a zone of inhibition at 50 µg/disc (Nocardia asteroides) of 0 mm and a zone of inhibition at 50 µg/disc (pseudomonas aeruginosa; Pseudomonas aeruginosa) of 7 mm.

`O=C1C(CC[S+]([O-])c2ccccc2)C(=O)N(c2ccccc2)N1c1ccccc1` (stereo not drawn) [Sulfinpyrazone] showed an ED50 (platelet aggregation; [8]) of 4.1 mg/kg.

In the case of `Clc1ccc(C(Cn2ccnc2)OCc2ccsc2Cl)c(Cl)c1` (stereo not drawn) [Tioconazole, 1-[2-[(2-Chloro-3-thienyl)methoxy]-2-(2,4-dichlorophenyl)ethyl]-1H-imidazole], the “No. of CFU/g kidney at 48 h” value (C. albicans [4]; i.v.) is reported as 1.2 × 10^3 CFU/g kidney, the “No. of CFU/g kidney at 48 h” value (C. albicans [4]; p.o.) is reported as 2.2 × 10^3 CFU/g kidney and the LD12.5 (in vivo; mouse, in vivo, po) is reported as over 500 mg/kg. For the same molecule, the CFU/g kidney (candida) was 8.1 × 10^3 CFU/g kidney and the “CFU/g kidney, % of control” value (candida) was 55 % of control.

With Polymyxin [PM] the “Zone diameter given by 50 μg of drug” value (Escherichia coli; 50 μg) was 10 MM, the “Zone diameter given by 50 μg of drug” value (Staphylococcus aureus; 50 μg) was 7 MM and the “Zone diameter given by 50 μg of drug” value (Streptococcus pyrogenes; 50 μg, Streptococcus pyrogenes) was 0 MM. The “Zone diameter given by 50 μg of drug” value (Proteus vulgaris; 50 μg) was 12 MM, the “Zone diameter given by 50 μg of drug” value (Nocardia brasiliensis; 50 μg) was 0 MM and the “Zone diameter given by 50 μg of drug” value (Klebsiella pneumoniac; 50 μg, Klebsiella pneumoniac) was 10 MM. For the same molecule, the “Zone diameter given by 50 μg of drug” value (Nocardia asteroides; 50 μg) was 11 MM and the “Zone diameter given by 50 μg of drug” value (pseudomonas aeruginosa; 50 μg, pseudomonas aeruginosa) was 10 MM.
